Measurements reported in the NIST ThermoML archive (doi:10.1021/je0302001).
± gives the expanded uncertainty stated by the source.

Assay: mn = molality of the nth substance listed, in mol/kg
Conditions: 101.3 kPa, Liquid; for viscosity: Capillary tube (Ostwald / Ubbelohde) method

O=[N+]([O-])[O-].O=[N+]([O-])[O-].[Zn+2] [nitric acid, zinc salt] + O
Conditions	mass density [kg/m3]	speed of sound [m/s]	viscosity [mPa·s]
313.15 K, m1 = 0.3388	–	1540.3 ± 4.1	–
313.15 K, m1 = 0.6111	–	1548.3 ± 4.1	–
313.15 K, m1 = 0.6405	–	1550.9 ± 4.1	–
313.15 K, m1 = 1.113	–	1571.8 ± 4.2	–
313.15 K, m1 = 1.258	–	1580.9 ± 4.2	–
313.15 K, m1 = 1.551	–	1595.3 ± 4.2	–
313.15 K, m1 = 1.906	–	1613.8 ± 4.3	–
313.15 K, m1 = 2.145	–	1624.5 ± 4.3	–
313.15 K, m1 = 2.29	–	1630.2 ± 4.3	–
313.15 K, m1 = 2.292	–	1631.4 ± 4.3	–
313.15 K, m1 = 2.344	–	1634.6 ± 4.3	–
313.15 K, m1 = 2.91	–	1659.9 ± 4.4	–
313.15 K, m1 = 3.472	–	1683.4 ± 4.4	–
313.15 K, m1 = 4.075	–	1702.8 ± 4.5	–
313.15 K, m1 = 4.817	–	1727.1 ± 4.6	–
313.15 K, m1 = 5.224	–	1733.1 ± 4.6	–
313.15 K, m1 = 5.797	–	1742.3 ± 4.6	–
313.15 K, m1 = 6.34	–	1747.6 ± 4.6	–
313.15 K, m1 = 6.89	–	1751.5 ± 4.6	–
313.15 K, m1 = 7.349	–	1751.7 ± 4.7	–
313.3 K, m1 = 2.145	1277.4 ± 1	–	–
313.55 K, m1 = 0.1329	1011.2 ± 0.8	–	–
313.85 K, m1 = 0.6111	1080.1 ± 0.8	–	–
313.95 K, m1 = 1.906	1248.8 ± 1	–	–
313.95 K, m1 = 2.29	1293.8 ± 1.1	–	–
314 K, m1 = 5.8	1619.4 ± 1.5	–	–
314.1 K, m1 = 0.0875	1004.4 ± 0.8	–	–
314.15 K, m1 = 7.764	1746 ± 1.7	–	–
314.2 K, m1 = 2.344	1300 ± 1.1	–	–
314.25 K, m1 = 0.6405	1084 ± 0.8	–	–
314.35 K, m1 = 0.2466	1027.8 ± 0.8	–	–
314.35 K, m1 = 7.349	1722 ± 1.7	–	–
314.45 K, m1 = 0.3388	1041 ± 0.8	–	–
314.6 K, m1 = 2.91	1362 ± 1.1	–	–
314.7 K, m1 = 4.817	1542.3 ± 1.4	–	–
314.95 K, m1 = 1.551	1204.4 ± 1	–	–
314.95 K, m1 = 4.075	1477.2 ± 1.3	–	–
315.05 K, m1 = 1.113	1147.9 ± 0.9	–	–
315.05 K, m1 = 6.89	1692.9 ± 1.6	–	–
315.1 K, m1 = 3.472	1419.3 ± 1.2	–	–
315.9 K, m1 = 6.34	1655.7 ± 1.6	–	–
315.95 K, m1 = 0.1329	1010.2 ± 0.8	–	–
315.95 K, m1 = 7.349	1720.2 ± 1.7	–	–
316.15 K, m1 = 0.6111	1079 ± 0.8	–	–
316.2 K, m1 = 2.292	1292.7 ± 1.1	–	–
316.4 K, m1 = 0.6405	1082.8 ± 0.8	–	–
316.6 K, m1 = 5.224	1573.5 ± 1.4	–	–
316.75 K, m1 = 0.0875	1003.3 ± 0.8	–	–
316.8 K, m1 = 0.2466	1026.7 ± 0.8	–	–
316.8 K, m1 = 0.3388	1039.9 ± 0.8	–	–
316.85 K, m1 = 1.258	1166.1 ± 0.9	–	–
316.9 K, m1 = 1.551	1203.1 ± 1	–	–
317.15 K, m1 = 2.145	1274.9 ± 1.1	–	–
317.25 K, m1 = 1.113	1146.8 ± 0.9	–	–
317.5 K, m1 = 5.8	1616 ± 1.5	–	–
317.6 K, m1 = 7.764	1742.3 ± 1.7	–	–
317.65 K, m1 = 7.349	1718.4 ± 1.7	–	–
317.8 K, m1 = 2.29	1291.2 ± 1.1	–	–
317.9 K, m1 = 1.906	1246.3 ± 1	–	–
317.9 K, m1 = 2.344	1297.2 ± 1.1	–	–
318.15 K, m1 = 0.0875	–	1540.1 ± 4.1	–
318.15 K, m1 = 0.1329	–	1539.2 ± 4.1	0.632 ± 0.007
318.15 K, m1 = 0.2466	–	1542.8 ± 4.1	0.655 ± 0.008
318.15 K, m1 = 0.3388	–	1544.7 ± 4.1	0.676 ± 0.008
318.15 K, m1 = 0.6111	–	1555.1 ± 4.1	0.738 ± 0.009
318.15 K, m1 = 0.6405	–	1557.5 ± 4.1	0.745 ± 0.009
318.15 K, m1 = 1.113	–	1574.6 ± 4.2	0.873 ± 0.01
318.15 K, m1 = 1.258	–	1583.5 ± 4.2	0.926 ± 0.011
318.15 K, m1 = 1.551	–	1597.5 ± 4.2	1.014 ± 0.012
318.15 K, m1 = 1.906	–	1606.7 ± 4.3	1.169 ± 0.014
318.15 K, m1 = 2.145	–	1623.3 ± 4.3	1.287 ± 0.015
318.15 K, m1 = 2.29	–	1629.6 ± 4.3	1.35 ± 0.016
318.15 K, m1 = 2.292	1291.3 ± 1.1	1631.3 ± 4.3	–
318.15 K, m1 = 2.344	–	1633.9 ± 4.3	1.366 ± 0.016
318.15 K, m1 = 2.91	–	1657.1 ± 4.4	1.68 ± 0.02
318.15 K, m1 = 3.472	–	1678.7 ± 4.4	2.088 ± 0.025
318.15 K, m1 = 4.075	–	1696.7 ± 4.5	2.588 ± 0.031
318.15 K, m1 = 4.817	–	1717.9 ± 4.5	3.383 ± 0.042
318.15 K, m1 = 5.224	–	1724.7 ± 4.6	3.857 ± 0.048
318.15 K, m1 = 5.797	–	1732 ± 4.6	4.807 ± 0.06
318.15 K, m1 = 6.34	–	1735.3 ± 4.6	5.725 ± 0.072
318.15 K, m1 = 6.89	–	1740.7 ± 4.6	6.968 ± 0.087
318.15 K, m1 = 7.349	–	1740.9 ± 4.6	8.113 ± 0.1
318.25 K, m1 = 0.6111	1077.9 ± 0.8	–	–
318.25 K, m1 = 4.817	1539 ± 1.4	–	–
318.3 K, m1 = 2.91	1359.3 ± 1.2	–	–
318.45 K, m1 = 6.89	1689.4 ± 1.6	–	–
318.6 K, m1 = 0.1329	1009.1 ± 0.8	–	–
318.65 K, m1 = 4.075	1474.2 ± 1.3	–	–
318.8 K, m1 = 0.6405	1081.7 ± 0.8	–	–
318.8 K, m1 = 3.472	1416.3 ± 1.2	–	–
318.85 K, m1 = 1.551	1202 ± 1	–	–
319.05 K, m1 = 0.0875	1002.2 ± 0.8	–	–
319.05 K, m1 = 0.3388	1038.8 ± 0.8	–	–
319.15 K, m1 = 1.113	1145.7 ± 0.9	–	–
319.2 K, m1 = 0.2466	1025.6 ± 0.8	–	–
319.3 K, m1 = 6.34	1652.5 ± 1.6	–	–
319.3 K, m1 = 7.764	1740.4 ± 1.7	–	–
320.05 K, m1 = 5.224	1570.1 ± 1.5	–	–
320.5 K, m1 = 0.6111	1076.8 ± 0.9	–	–
320.6 K, m1 = 4.075	1472.7 ± 1.3	–	–
320.75 K, m1 = 0.1329	1008.1 ± 0.8	–	–
320.85 K, m1 = 5.8	1612.8 ± 1.5	–	–
321 K, m1 = 1.258	1163.6 ± 0.9	–	–
321 K, m1 = 7.349	1714.9 ± 1.7	–	–
321.05 K, m1 = 2.145	1272.2 ± 1.1	–	–
321.25 K, m1 = 1.113	1144.5 ± 0.9	–	–
321.3 K, m1 = 0.0875	1001.2 ± 0.8	–	–
321.3 K, m1 = 0.3388	1037.8 ± 0.8	–	–
321.35 K, m1 = 0.2466	1024.5 ± 0.8	–	–
321.4 K, m1 = 2.29	1288.5 ± 1.1	–	–
321.65 K, m1 = 2.344	1294.6 ± 1.1	–	–
321.7 K, m1 = 1.906	1243.6 ± 1	–	–
321.75 K, m1 = 4.817	1535.8 ± 1.4	–	–
321.85 K, m1 = 6.89	1685.8 ± 1.6	–	–
322.05 K, m1 = 2.292	1288.5 ± 1.1	–	–
322.05 K, m1 = 2.91	1356.4 ± 1.2	–	–
322.4 K, m1 = 0.6111	1075.8 ± 0.9	–	–
322.5 K, m1 = 3.472	1413.3 ± 1.3	–	–
322.55 K, m1 = 7.764	1736.9 ± 1.7	–	–
322.6 K, m1 = 6.34	1649 ± 1.6	–	–
322.75 K, m1 = 1.551	1199.5 ± 1	–	–
322.95 K, m1 = 0.6405	1079.6 ± 0.9	–	–
323.15 K, m1 = 0.0875	–	1545.6 ± 4.1	–
323.15 K, m1 = 0.1329	–	1544.6 ± 4.1	0.58 ± 0.007
323.15 K, m1 = 0.2466	–	1547.7 ± 4.1	0.601 ± 0.007
323.15 K, m1 = 0.3388	–	1551.5 ± 4.1	0.621 ± 0.007
323.15 K, m1 = 0.6111	–	1560.9 ± 4.1	0.679 ± 0.008
323.15 K, m1 = 0.6405	–	1561 ± 4.1	0.686 ± 0.008
323.15 K, m1 = 1.113	–	1577.8 ± 4.2	0.804 ± 0.009
323.15 K, m1 = 1.258	–	1585.2 ± 4.2	0.853 ± 0.01
323.15 K, m1 = 1.551	–	1598.3 ± 4.2	0.935 ± 0.011
323.15 K, m1 = 1.906	–	1611 ± 4.3	1.077 ± 0.013
323.15 K, m1 = 2.145	–	1622.9 ± 4.3	1.183 ± 0.014
323.15 K, m1 = 2.29	–	1630 ± 4.3	1.245 ± 0.015
323.15 K, m1 = 2.292	–	1631.1 ± 4.3	–
323.15 K, m1 = 2.344	–	1628.1 ± 4.3	1.254 ± 0.015
323.15 K, m1 = 2.91	–	1651.1 ± 4.4	1.537 ± 0.018
323.15 K, m1 = 3.472	–	1675.6 ± 4.4	1.908 ± 0.023
323.15 K, m1 = 4.075	–	1690.4 ± 4.5	2.349 ± 0.029
323.15 K, m1 = 4.817	–	1707.1 ± 4.5	3.051 ± 0.037
323.15 K, m1 = 5.224	–	1716.7 ± 4.5	3.464 ± 0.043
323.15 K, m1 = 5.797	–	1723.6 ± 4.6	4.283 ± 0.053
323.15 K, m1 = 6.34	–	1724.9 ± 4.6	5.066 ± 0.064
323.15 K, m1 = 6.89	–	1729.5 ± 4.6	6.121 ± 0.077
323.15 K, m1 = 7.349	–	1729.7 ± 4.6	7.071 ± 0.089
324.25 K, m1 = 7.764	1734.9 ± 1.7	–	–
